Assay results published in ChEMBL document CHEMBL4842316, “Structure-based bioisosterism design of thio-benzoxazepinones as novel necroptosis inhibitors” (Eur J Med Chem, 2021).
Activity calls are given as the source filed them. The rule behind the calls is not given here.

Key:
HT-29 [1] = experiment: Anti-necroptotic activity in human HT-29 cells assessed as inhibition of hTNFalpha/Z-VAD-fmk (TSZ)-induced necroptosis by measuring increase in cell viability measured after 8 to 10 hrs by celltiter-glo luminescent cell viability assay; type: functional, cell-based
[2] = Cytotoxicity against human HT-29 cells assessed as reduction in cell viability measured after 8 to 10 hrs by celltiter-glo luminescent cell viability assay; type: cell-based; conditions: time 8-10 hrs
HT-29 [3] = experiment: Anti-necroptotic activity in human HT-29 cells assessed as inhibition of Z-VAD-fmk (TSZ)-induced necroptosis by measuring increase in cell viability measured after 8 to 10 hrs by celltiter-glo luminescent cell viability assay; type: functional, cell-based; conditions: time 8-10 hrs
[4] = molecular target: T1, Receptor-interacting serine/threonine-protein kinase 1 (Homo sapiens) (UniProt Q13546); experiment: Inhibition of RIPK1 phosphorylation in Z-VAD-fmk (TSZ)-induced human HT-29 cells at 1 uM measured up to 4 hrs by immunoblotting analysis; type: cell-based; conditions: time hrs <=4
T1 sequence (whole entry): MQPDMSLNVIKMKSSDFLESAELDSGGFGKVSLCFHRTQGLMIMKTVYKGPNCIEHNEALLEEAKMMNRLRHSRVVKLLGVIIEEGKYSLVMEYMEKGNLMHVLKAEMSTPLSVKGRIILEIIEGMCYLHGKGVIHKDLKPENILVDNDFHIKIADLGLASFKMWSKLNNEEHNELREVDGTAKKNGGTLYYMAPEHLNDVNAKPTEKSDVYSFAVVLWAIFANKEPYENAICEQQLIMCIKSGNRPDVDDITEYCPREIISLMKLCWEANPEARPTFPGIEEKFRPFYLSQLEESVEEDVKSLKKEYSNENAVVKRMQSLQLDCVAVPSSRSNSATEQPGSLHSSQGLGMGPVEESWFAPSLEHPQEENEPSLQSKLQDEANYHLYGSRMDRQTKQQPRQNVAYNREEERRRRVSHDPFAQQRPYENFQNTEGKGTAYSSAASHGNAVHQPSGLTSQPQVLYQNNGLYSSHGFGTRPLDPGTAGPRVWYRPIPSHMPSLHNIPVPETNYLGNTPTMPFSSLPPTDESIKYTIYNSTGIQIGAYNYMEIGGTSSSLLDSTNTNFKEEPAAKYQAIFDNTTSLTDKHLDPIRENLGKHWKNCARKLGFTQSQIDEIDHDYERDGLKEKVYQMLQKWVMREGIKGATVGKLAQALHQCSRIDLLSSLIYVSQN

[5] = molecular target: Receptor-interacting serine/threonine-protein kinase 3 (Homo sapiens) (UniProt Q9Y572); experiment: Inhibition of RIPK3 phosphorylation in Z-VAD-fmk (TSZ)-induced human HT-29 cells at 1 uM measured up to 4 hrs by immunoblotting analysis; type: cell-based; conditions: time hrs <=4
[6] = molecular target: T2, Mixed lineage kinase domain-like protein (Homo sapiens) (UniProt Q8NB16); experiment: Inhibition of MLKL phosphorylation in Z-VAD-fmk (TSZ)-induced human HT-29 cells at 1 uM measured up to 4 hrs by immunoblotting analysis; type: cell-based; conditions: time hrs <=4
T2 sequence (whole entry): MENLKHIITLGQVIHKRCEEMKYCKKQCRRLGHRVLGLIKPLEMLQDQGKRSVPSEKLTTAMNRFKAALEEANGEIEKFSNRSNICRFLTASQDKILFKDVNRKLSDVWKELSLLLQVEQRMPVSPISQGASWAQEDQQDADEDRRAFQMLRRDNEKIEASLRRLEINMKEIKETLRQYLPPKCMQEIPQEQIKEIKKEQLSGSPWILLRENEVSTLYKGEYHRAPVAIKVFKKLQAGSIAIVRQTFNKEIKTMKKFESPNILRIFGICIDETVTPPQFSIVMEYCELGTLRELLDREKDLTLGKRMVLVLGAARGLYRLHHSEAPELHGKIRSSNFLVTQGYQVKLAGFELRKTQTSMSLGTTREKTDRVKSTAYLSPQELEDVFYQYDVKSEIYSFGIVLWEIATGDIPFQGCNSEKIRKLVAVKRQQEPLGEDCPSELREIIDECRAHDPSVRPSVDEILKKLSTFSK

[7] = molecular target: T1, Receptor-interacting serine/threonine-protein kinase 1 (Homo sapiens); experiment: Inhibition of RIPK1 phosphorylation in Z-VAD-fmk (TSZ)-induced human HT-29 cells measured at 4 hrs by immunoblotting analysis; type: cell-based; conditions: dose 0.001-1 µM
[8] = molecular target: Receptor-interacting serine/threonine-protein kinase 3 (Homo sapiens) (UniProt Q9Y572); experiment: Inhibition of RIPK3 phosphorylation in Z-VAD-fmk (TSZ)-induced human HT-29 cells measured at 4 hrs by immunoblotting analysis; type: cell-based; conditions: dose 0.001-1 µM
[9] = molecular target: T2, Mixed lineage kinase domain-like protein (Homo sapiens); experiment: Inhibition of MLKL phosphorylation in Z-VAD-fmk (TSZ)-induced human HT-29 cells measured at 4 hrs by immunoblotting analysis; type: cell-based; conditions: dose 0.001-1 µM
[10] = molecular target: T1, Receptor-interacting serine/threonine-protein kinase 1 (Homo sapiens); experiment: Inhibition of RIPK1 in Z-VAD-fmk (TSZ)-induced human HT-29 cells assessed as reduction in RIPK1-RIPK3 necrosome formation at 1 uM measured after 6 hrs by Western blot analysis; type: cell-based
[11] = molecular target: Receptor-interacting serine/threonine-protein kinase 3 (Homo sapiens) (UniProt Q9Y572); experiment: Inhibition of RIPK3 in Z-VAD-fmk (TSZ)-induced human HT-29 cells assessed as reduction in RIPK1-RIPK3 necrosome formation at 1 uM measured after 6 hrs by Western blot analysis; type: cell-based

Chain of Receptor-interacting serine/threonine-protein kinase 3 (Homo sapiens) (Q9Y572 whole entry, looked up, the tested form may be a part): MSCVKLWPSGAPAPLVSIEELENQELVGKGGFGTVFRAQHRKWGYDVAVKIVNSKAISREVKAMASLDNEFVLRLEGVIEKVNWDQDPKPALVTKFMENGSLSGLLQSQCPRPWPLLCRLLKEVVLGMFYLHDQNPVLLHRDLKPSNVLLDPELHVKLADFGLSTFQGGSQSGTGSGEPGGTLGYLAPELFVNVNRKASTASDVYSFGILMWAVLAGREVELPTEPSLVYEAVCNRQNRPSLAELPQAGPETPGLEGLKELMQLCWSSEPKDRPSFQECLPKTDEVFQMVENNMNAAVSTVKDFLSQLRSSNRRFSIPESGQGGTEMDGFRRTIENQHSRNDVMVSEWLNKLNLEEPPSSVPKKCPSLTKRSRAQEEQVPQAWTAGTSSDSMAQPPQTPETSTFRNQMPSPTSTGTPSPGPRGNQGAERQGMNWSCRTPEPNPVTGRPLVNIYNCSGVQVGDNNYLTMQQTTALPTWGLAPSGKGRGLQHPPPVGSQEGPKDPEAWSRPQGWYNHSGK

Compound	EC50 (HT-29 [1])	CC50 [2]	further results
CN1C(=S)[C@H](NC(=O)c2n[nH]c(Cc3ccccc3)n2)COc2cccnc21	18.6 nM	> 50 µM	
Cc1cnc2c(c1)N(C)C(=O)[C@H](NC(=O)c1n[nH]c(Cc3ccccc3)n1)CO2	> 10000 nM	> 50 µM	
[2H]C([2H])([2H])N1C(=S)[C@H](NC(=O)c2n[nH]c(Cc3ccccc3)n2)COc2ccccc21	76.3 nM	> 50 µM	
Cc1cnc2c(c1)N(C)C(=O)[C@@H](NC(=O)c1n[nH]c(Cc3ccccc3)n1)CO2	243 nM	> 50 µM	
Cc1ccc2c(n1)OC[C@H](NC(=O)c1n[nH]c(Cc3ccccc3)n1)C(=O)N2C	363 nM	> 50 µM	
CCN1C(=S)[C@H](NC(=O)c2n[nH]c(Cc3ccccc3)n2)COc2ccccc21	6680 nM	> 50 µM	
CCN1C(=S)[C@@H](NC(=O)c2n[nH]c(Cc3ccccc3)n2)COc2ccccc21	1510 nM	> 50 µM	
CN1C(=O)[C@@H](NC(=O)c2nnc(Cc3ccccc3)[nH]2)COc2cccnc21 [ECLITASERTIB]	15.4 nM	> 50 µM	
Cc1cnc2c(c1)N(C)C(=S)[C@@H](NC(=O)c1n[nH]c(Cc3ccccc3)n1)CO2	144 nM	> 50 µM	
O=C(N[C@@H]1COc2ccccc2NC1=S)c1n[nH]c(Cc2ccccc2)n1	8840 nM	> 50 µM	
Cc1ccc2c(n1)OC[C@@H](NC(=O)c1n[nH]c(Cc3ccccc3)n1)C(=O)N2C	6500 nM	> 50 µM	
CN1C(=S)[C@@H](NC(=O)c2n[nH]c(Cc3ccccc3)n2)COc2ccccc21	2.8 nM	> 50 µM	Activity (HT-29 [3]): Dose-Dependent Effect; inhibition [4]: Active; inhibition [5]: Active; inhibition [6]: Active; inhibition [7]: Dose-Dependent Effect; inhibition [8]: Dose-Dependent Effect; inhibition [9]: Dose-Dependent Effect; inhibition [10]: Active; inhibition [11]: Active
CN1C(=S)[C@@H](NC(=O)c2n[nH]c(Cc3ccccc3)n2)COc2cccnc21	13.7 nM	> 50 µM	
Cc1cnc2c(c1)N(C)C(=S)[C@H](NC(=O)c1n[nH]c(Cc3ccccc3)n1)CO2	3400 nM	> 50 µM	
O=C(N[C@H]1COc2ccccc2NC1=S)c1n[nH]c(Cc2ccccc2)n1	736 nM	> 50 µM	
CN1C(=O)[C@H](NC(=O)c2n[nH]c(Cc3ccccc3)n2)COc2cccnc21	810 nM	> 50 µM	
CN1C(=S)[C@H](NC(=O)c2n[nH]c(Cc3ccccc3)n2)COc2ncccc21	> 10000 nM	> 50 µM	
[2H]C([2H])([2H])N1C(=S)[C@@H](NC(=O)c2n[nH]c(Cc3ccccc3)n2)COc2ccccc21	7.4 nM	> 50 µM	
Cc1ccc2c(n1)OC[C@H](NC(=O)c1n[nH]c(Cc3ccccc3)n1)C(=S)N2C	122 nM	> 50 µM	
CN1C(=O)[C@@H](NC(=O)c2n[nH]c(Cc3ccccc3)n2)COc2ncccc21	> 10000 nM	> 50 µM	
CN1C(=O)[C@H](NC(=O)c2nnc(Cc3ccccc3)[nH]2)COc2ccccc21	279 nM	> 50 µM	
CN1C(=O)[C@H](NC(=O)c2n[nH]c(Cc3ccccc3)n2)COc2ncccc21	> 10000 nM	> 50 µM	
CN1C(=S)[C@H](NC(=O)c2n[nH]c(Cc3ccccc3)n2)COc2ccccc21	22.6 nM	> 50 µM	Activity (HT-29 [3]): Dose-Dependent Effect; inhibition [4]: Active; inhibition [5]: Active; inhibition [6]: Active; inhibition [7]: Dose-Dependent Effect; inhibition [8]: Dose-Dependent Effect; inhibition [9]: Dose-Dependent Effect; inhibition [10]: Active; inhibition [11]: Active
CN1C(=O)[C@@H](NC(=O)c2nnc(Cc3ccccc3)[nH]2)COc2ccccc21 [GSK2982772]	3.6 nM	> 50 µM	
Cc1ccc2c(n1)OC[C@@H](NC(=O)c1n[nH]c(Cc3ccccc3)n1)C(=S)N2C	2020 nM	> 50 µM	
CN1C(=S)[C@@H](NC(=O)c2n[nH]c(Cc3ccccc3)n2)COc2ncccc21	> 10000 nM	> 50 µM	
